We go through eight compounds from paper PMC11012289, “The Discovery of New Inhibitors of Insulin-Regulated Aminopeptidase by a High-Throughput Screening of 400,000 Drug-like Compounds” (International Journal of Molecular Sciences, 2024).

Read-outs that look alike come from different tables or passages of the source. Where no end group is shown, it is not given here. [ ]: non-standard residue; d: D form. Nle = CCCC[C@H](N)C(=O)O

In series [1] the test system is primary hippocampal neuron cultures. The arrangement: method as in PMID 26769413, PMID 36286055. The settings on record: cited from earlier work.
The test system of series [2] is APN, ERAP1, ERAP2, and LTA4H. The following applies: cited from earlier work.
A further series concerns rodents. The arrangement: method as in PMID 19233301, PMID 18716029. The settings on record: intracerebroventricular administration; cited from earlier work.
Series [3] concerns the target IRAP. More on the design: method as in PMID 18716029. The following applies: cited from earlier work.
For series [4] the following is noted: cited from earlier work.
The target of series [5] is T1, IRAP (Homo sapiens, UniProt Q9UIQ6).
T1 construct: The screen was performed with the soluble truncated IRAP enzyme; made in house
Put plainly: Deselection fluorescence IRAP assay with 10 µM zinc. Type of series: biochemical. The settings on record: 10 µM ZnSO4 in assay buffer.

Series [6] addresses T1, IRAP. Put plainly: Primary fluorescence IRAP assay (L-Leucine-7-amido-4-methylcoumarin cleavage). The class given is biochemical.
In series [7] the target is T1, IRAP. In words: Orthogonal absorbance IRAP assay (L-Leucine para-nitroanilide cleavage). Type of series: biochemical. The settings on record: 1 mM L-Leucine p-Nitroanilide, 120 min RT. In short, it runs like this:
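Absorbance assay: IRAP protein at 2.5 × 10^−4 mg/mL final with 1 mM L-leucine para-nitroanilide in buffer containing 0.05% BSA; 120 min at RT in the dark. para-Nitroaniline read at 405 nm. Dose–response spanned 20 μM–27.4 nM compound, 1% DMSO.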

The target of series [8] is T1, IRAP. Put plainly: Thermal shift (TSA) IRAP assay. Type of series: binding. The following applies: screening hits at 30 µM, 1% DMSO.
On the set-up of series [9]: method as in ELF screening history. The following applies: ref ELF screening history, cited from earlier work.
The next series relates to rats. The following applies: cited from earlier work.
Series [10] has as its target IRAP. The settings on record: read-out: Ki (affinity to IRAP); cited from earlier work.

T1 sequence (Q9UIQ6 155-1025 limits assumed): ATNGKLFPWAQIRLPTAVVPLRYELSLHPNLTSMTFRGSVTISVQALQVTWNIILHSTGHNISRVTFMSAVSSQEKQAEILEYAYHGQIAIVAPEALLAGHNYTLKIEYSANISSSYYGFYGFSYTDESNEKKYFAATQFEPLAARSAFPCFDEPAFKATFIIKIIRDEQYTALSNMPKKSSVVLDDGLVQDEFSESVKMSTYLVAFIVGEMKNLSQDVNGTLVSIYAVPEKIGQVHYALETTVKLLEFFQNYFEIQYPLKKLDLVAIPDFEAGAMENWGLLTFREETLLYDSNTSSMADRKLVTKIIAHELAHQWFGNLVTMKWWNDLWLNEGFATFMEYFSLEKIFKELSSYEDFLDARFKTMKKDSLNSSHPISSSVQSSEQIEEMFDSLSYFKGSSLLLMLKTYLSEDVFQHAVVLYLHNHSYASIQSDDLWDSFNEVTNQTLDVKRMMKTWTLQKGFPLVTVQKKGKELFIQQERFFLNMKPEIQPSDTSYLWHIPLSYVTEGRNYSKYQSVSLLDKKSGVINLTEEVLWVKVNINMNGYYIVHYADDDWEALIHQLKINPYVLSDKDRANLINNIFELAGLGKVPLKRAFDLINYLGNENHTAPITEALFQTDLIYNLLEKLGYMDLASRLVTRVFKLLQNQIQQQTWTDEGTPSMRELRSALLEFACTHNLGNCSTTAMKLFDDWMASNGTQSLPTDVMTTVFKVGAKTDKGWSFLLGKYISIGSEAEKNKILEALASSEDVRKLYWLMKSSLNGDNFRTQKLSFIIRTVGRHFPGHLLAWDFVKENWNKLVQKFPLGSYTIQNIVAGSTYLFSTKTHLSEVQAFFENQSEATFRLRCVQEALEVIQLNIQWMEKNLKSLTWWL

`N[C@H]1CCSSC[C@@H](C(=O)NCc2ccccc2CC(=O)O)NC(=O)C[C@H](Cc2ccc(O)cc2)NC1=O` [HA08]: in [1], the “effect on hydrogen peroxide-induced toxicity” value was “reversed hydrogen peroxide-induced toxicity” and the “effect on spine density” value was “enhanced spine densities”.
Take `CCOC(=O)C1=C(NC(C)=O)Oc2cc(O)ccc2C1c1cccnc1` (stereo not drawn) [HFI-419]: the “selectivity versus other aminopeptidases” value in series [2] is “high selectivity”. In the series on rodents, the effect on cognition entry is reported as “cognitive-enhancing effect”. The Ki – broadly, a measure of affinity in units of concentration, obtained from inhibition or displacement – on IRAP [3] was 420 nM.
For the compound `CCOC(=O)C1=C(NC(C)=O)Oc2cc(O)ccc2C1c1cnc2ccccc2c1` (stereo not drawn) [HFI-437], the Ki at IRAP [3] was 20 nM.
On to `CC[C@H](C)[C@H](NC(=O)[C@H](Cc1ccc(O)cc1)NC(=O)[C@@H](CN)C(C)C)C(=O)N[C@H]1Cc2c([nH]c3ccccc23)CN(CC(=O)N[C@@H](Cc2ccccc2)C(=O)O)C1=O` [IVDE77], for which the metabolic stability result in [4] is “improved metabolic stability”.
With `c1ccn(CCCSc2nnc3ccc(N4CCCC4)nn23)c1` [QHL50], the “Fluorescence + Zn pIC50” value at IRAP [5] was determined as 4.7. Moreover, the “Fluorescence pIC50” value at IRAP [6] (37.5 µM L-Leucine-7-amido-4-methylcoumarin, 60 min RT, dose-response 20 µM-27.4 nM) amounted to 4.74. The IC50 (commonly the concentration at which inhibition is half-maximal) on IRAP [6] (37.5 µM L-Leucine-7-amido-4-methylcoumarin, 60 min RT, dose-response 20 µM-27.4 nM, read-out: Fluorescence IC50) was 18.2 µM. Moreover, the LipE at IRAP [6] (calculated from (pIC50Fluorescence − LogD)) is on record as 2.06. Also, the “Absorbance pIC50” value on IRAP [7] came out at 5.36. Moreover, the “TSA (∆°C), thermal shift of IRAP” value at IRAP [8] was found to be 0.44 °C. Further, the “Enzyme Active” value in series [9] (number of ELF enzyme screens in which the compound was active) is 7. Further, the Targets active in series [9] (number of ELF screens in which the compound was active) is 11. In addition, in series [9] (share of ELF enzyme targets screened), the “Enzyme Active %” value is recorded as 8.1%. Besides, in series [9] (share of all ELF targets screened), the “Targets Active %” value is 7.6%.
For “Leu-Val-Val-Tyr-Pro-Trp-Thr-Gln-Arg-Phe (LVVYPWTQRF; printed: Leu-Val-Val-Tyr-Pro-Trp-Thr-Gln-Arg-Phe) [LVV-hemorphin-7, structural analog of Ang IV]”, the “effect on memory retention and retrieval” value in the series on rats is “strong promoters of memory retention and retrieval”.
Turning to “Nle-Tyr-Ile-His-Pro-Phe ([Nle]YIHPF) [Nle-Ang IV, structural analog of Ang IV]”, the “effect on memory retention and retrieval” value in the series on rats was “strong promoters of memory retention and retrieval”.
For the compound Val-Tyr-Ile-His-Pro-Phe [Ang IV], the Ki at IRAP [10] was 62 nM. Besides, the “effect on memory and learning” value in the series on rats (intracerebroventricular injection) is “improved memory and learning”.
